test system: HIV-1 Ba-L or HIV-1 IIIB infection of the HOS cell line (expressing hCXCR4/hCCR5/hCD4/pHIV-LTR-luciferase); test: HOS HIV-1 Infectivity Assay; format: cell-based; conditions: Human immunodeficiency virus 1, HOS cells, luciferase readout, strain not given, read-out: Activity Level
Method: Compounds were profiled against two HIV-1 viruses, the M-tropic (CCR5 utilizing) Ba-L strain and the T-tropic (CXCR4 utilizing) IIIB strain. Ba-L was propagated in either peripheral blood lymphocytes or SupT1/CCR5+/CXCR4+ cells. IIIB was propagated in peripheral blood lymphocytes. Compounds were tested for their ability to block infection of the HOS cell line (expressing hCXCR4/hCCR5/hCD4/pHIV-LTR-luciferase) by either HIV-1 Ba-L or HIV-1 IIIB. Compound cytotoxicity was also examined in the absence of virus addition.
HOS cells (expressing hCXCR4/hCCR5/hCD4/pHIV-LTR-luciferase) were harvested and diluted in Dulbeccos modified Eagles media supplemented with 2% FCS to a concentration of 120,000 cells/ml. The cells were plated into 96-well plates (50 μl per well) and the plates were placed in a tissue culture incubator (370° C.; 5% CO2/95% air) for a period of 24 h.
Subsequently, 50 μl of the desired drug solution (2 times the final concentration) was added to each well and the plates were returned to the tissue culture incubator ([…]; 5% CO2/95% air) for 1 h. Following this incubation, 60 μl of diluted virus (4 times the final concentration) was added to 60 μl of 2× the final desired concentration of the compound and 100 μl this compound/virus mix was added to each well (approximately 2 million RLU per well of virus). The plates were returned to the tissue culture incubator ([…]; 5% CO2/95% air) and were incubated for a further 96 h.
Following this incubation the endpoint for the virally infected cultures was quantified following addition of Steady-Glo Luciferase assay system reagent (Promega, Madison, Wis.). Cell viability or non-infected cultures was measured using a CellTiter-Glo luminescent cell viability assay system (Promega, Madison, Wis.). All luminescent readouts are performed on a Topcount luminescence detector (Packard, Meridien, Conn.).

Row | Structure (SMILES) | IC50 [nM]
1 | CN(C)CCNCc1c(CN(C)C2CCCc3cccnc32)nc2ccccn12 (racemic) [Example 30, N,N-dimethyl-N′-[(2-{[methyl(5,6,7,8-tetrahydro-8-quinolinyl)amino]methyl}imidazo[1,2-a]pyridin-3-yl)methyl]-1,2-ethanediamine] | 100 to 500
2 | CN(Cc1nc2ccccn2c1-c1ccncc1)[C@H]1CCCc2cccnc21 [Example 1, (8S)-N-Methyl-N-{[3-(4-pyridinyl)imidazo[1,2-a]pyridin-2-yl]methyl}-5,6,7,8-tetrahydro-8-quinolinamine] | < 100
3 | CN(Cc1nc2ccccn2c1CCCN)[C@H]1CCCc2cccnc21 [Example 2, (8S)-N-{[3-(3-Aminopropyl)imidazo[1,2-a]pyridin-2-yl]methyl}-N-methyl-5,6,7,8-tetrahydro-8-quinolinamine] | < 100
4 | CN(C)CCCc1c(CN(C)[C@H]2CCCc3cccnc32)nc2ccccn12 [Example 3, (8S)-N-({3-[3-(Dimethylamino)propyl]imidazo[1,2-a]pyridin-2-yl}methyl)-N-methyl-5,6,7,8-tetrahydro-8-quinolinamine] | < 100
5 | CC(C)CNCCCc1c(CN(C)[C@H]2CCCc3cccnc32)nc2ccccn12 [Example 4, (8S)-N-Methyl-N-[(3-{3-[(2-methylpropyl)amino]propyl}imidazo[1,2-a]pyridin-2-yl)methyl]-5,6,7,8-tetrahydro-8-quinolinamine] | < 100
6 | CN(Cc1nc2ccccn2c1-c1cccnc1)[C@H]1CCCc2cccnc21 [Example 5, (8S)-N-Methyl-N-{[3-(3-pyridinyl)imidazo[1,2-a]pyridin-2-yl]methyl}-5,6,7,8-tetrahydro-8-quinolinamine] | 100 to 500
7 | CN(C)Cc1c(CN(C)[C@H]2CCCc3cccnc32)nc2ccccn12 [Example 6, (8S)-N-({3-[(Dimethylamino)methyl]imidazo[1,2-a]pyridin-2-yl}methyl)-N-methyl-5,6,7,8-tetrahydro-8-quinolinamine] | < 100
8 | CN(C)CC(=O)NCc1c(CN(C)[C@H]2CCCc3cccnc32)nc2ccccn12 [Example 7, N^2,N^2-Dimethyl-N^1-{[2-({methyl[(8S)-5,6,7,8-tetrahydro-8-quinolinyl]amino}methyl)imidazo[1,2-a]pyridin-3-yl]methyl}glycinamide] | < 100
9 | CN(Cc1nc2ccccn2c1-c1ccc(N2CCOCC2)nc1)[C@H]1CCCc2cccnc21 [Example 8, (8S)-N-Methyl-N-({3-[6-(4-morpholinyl)-3-pyridinyl]imidazo[1,2-a]pyridin-2-yl}methyl)-5,6,7,8-tetrahydro-8-quinolinamine] | 100 to 500
10 | CN(Cc1nc2ccccn2c1CN1CCCC1)[C@H]1CCCc2cccnc21 [Example 9, (8S)-N-Methyl-N-{[3-(1-pyrrolidinylmethyl)imidazo[1,2-a]pyridin-2-yl]methyl}-5,6,7,8-tetrahydro-8-quinolinamine] | < 100
11 | CN(Cc1nc2ccccn2c1CN1CCOCC1)[C@H]1CCCc2cccnc21 [Example 10, (8S)-N-Methyl-N-{[3-(4-morpholinylmethyl)imidazo[1,2-a]pyridin-2-yl]methyl}-5,6,7,8-tetrahydro-8-quinolinamine] | 100 to 500
12 | CN(C)c1ccc(-c2c(CN(C)[C@H]3CCCc4cccnc43)nc3ccccn23)cn1 [Example 11, (8S)-N-({3-[6-(Dimethylamino)-3-pyridinyl]imidazo[1,2-a]pyridin-2-yl}methyl)-N-methyl-5,6,7,8-tetrahydro-8-quinolinamine] | < 100
13 | CN(Cc1nc2ccccn2c1CN1CCCCC1)[C@H]1CCCc2cccnc21 [Example 12, (8S)-N-Methyl-N-{[3-(1-piperidinylmethyl)imidazo[1,2-a]pyridin-2-yl]methyl}-5,6,7,8-tetrahydro-8-quinolinamine] | < 100
14 | CN(C)C1CCN(Cc2c(CN(C)[C@H]3CCCc4cccnc43)nc3ccccn23)C1 (stereo partly drawn) [Example 13, (8S)-N-[(3-{[3-Dimethylamino-1-pyrrolidinyl]methyl}imidazo[1,2-a]pyridin-2-yl)methyl]-N-methyl-5,6,7,8-tetrahydro-8-quinolinamine] | < 100
15 | CN1CCN(c2ccc(-c3c(CN(C)[C@H]4CCCc5cccnc54)nc4ccccn34)cn2)CC1 [Example 14, (8S)-N-Methyl-N-({3-[6-(4-methyl-1-piperazinyl)-3-pyridinyl]imidazo[1,2-a]pyridin-2-yl}methyl)-5,6,7,8-tetrahydro-8-quinolinamine] | < 100
16 | CN(Cc1nc2ccccn2c1-c1ccc(N2CCCC2)nc1)[C@H]1CCCc2cccnc21 [Example 15, (8S)-N-Methyl-N-({3-[6-(1-pyrrolidinyl)-3-pyridinyl]imidazo[1,2-a]pyridin-2-yl}methyl)-5,6,7,8-tetrahydro-8-quinolinamine] | 100 to 500
17 | CN(C)CCN(C)c1ccc(-c2c(CN(C)[C@H]3CCCc4cccnc43)nc3ccccn23)cn1 [Example 16, N,N,N′-trimethyl-N′-trimethyl-N′-{5-[2-({methyl[(8S)-5,6,7,8-tetrahydro-8-quinolinyl]amino}methyl)imidazo[1,2-a]pyridin-3-yl]-2-pyridinyl}-1,2-ethanediamine] | 500 to 10000
18 | CN(C)C1CCN(c2ccc(-c3c(CN(C)[C@H]4CCCc5cccnc54)nc4ccccn34)cn2)C1 (stereo partly drawn) [Example 18, (8S)-N-[(3-{6-[3-(Dimethylamino)-1-pyrrolidinyl]-3-pyridinyl}imidazo[1,2-a]pyridin-2-yl)methyl]-N-methyl-5,6,7,8-tetrahydro-8-quinolinamine] | 500 to 10000
19 | COCCN(CCOC)Cc1c(CN(C)[C@H]2CCCc3cccnc32)nc2ccccn12 [Example 19, (8S)-N-{[3-({Bis[2-(methyloxy)ethyl]amino}methyl)imidazo[1,2-a]pyridin-2-yl]methyl}-N-methyl-5,6,7,8-tetrahydro-8-quinolinamine] | 100 to 500
20 | CCN(CC)Cc1c(CN(C)[C@H]2CCCc3cccnc32)nc2ccccn12 [Example 20, (8S)-N-({3-[(Diethylamino)methyl]imidazo[1,2-a]pyridin-2-yl}methyl)-N-methyl-5,6,7,8-tetrahydro-8-quinolinamine] | 100 to 500
21 | COCCN(C)Cc1c(CN(C)[C@H]2CCCc3cccnc32)nc2ccccn12 [Example 21, (8S)-N-Methyl-N-{[3-({methyl[2-(methyloxy)ethyl]amino}methyl)imidazo[1,2-a]pyridin-2-yl]methyl}-5,6,7,8-tetrahydro-8-quinolinamine] | 100 to 500
22 | CC(C)N(C)Cc1c(CN(C)[C@H]2CCCc3cccnc32)nc2ccccn12 [Example 22, (8S)-N-Methyl-N-[(3-{[methyl(1-methylethyl)amino]methyl}imidazo[1,2-a]pyridin-2-yl)methyl]-5,6,7,8-tetrahydro-8-quinolinamine] | < 100
23 | CN1CCC(N(C)Cc2c(CN(C)[C@H]3CCCc4cccnc43)nc3ccccn23)C1 (stereo partly drawn) [Example 23, (8S)-N-Methyl-N-[(3-{[methyl(1-methyl-3-pyrrolidinyl)amino]methyl}imidazo[1,2-a]pyridin-2-yl)methyl]-5,6,7,8-tetrahydro-8-quinolinamine] | < 100
24 | CN1CCC(N(C)Cc2c(CN(C)[C@H]3CCCc4cccnc43)nc3ccccn23)CC1 [Example 24, (8S)-N-Methyl-N-[(3-{[methyl(1-methyl-4-piperidinyl)amino]methyl}imidazo[1,2-a]pyridin-2-yl)methyl]-5,6,7,8-tetrahydro-8-quinolinamine] | < 100
25 | CN(CC#N)Cc1c(CN(C)[C@H]2CCCc3cccnc32)nc2ccccn12 [Example 25, (Methyl{[2-({methyl[(8S)-5,6,7,8-tetrahydro-8-quinolinyl]amino}methyl)imidazo[1,2-a]pyridin-3-yl]methyl}amino)acetonitrile] | < 100
26 | CC(C)CN(C)Cc1c(CN(C)[C@H]2CCCc3cccnc32)nc2ccccn12 [Example 26, (8S)-N-Methyl-N-[(3-{[methyl(2-methylpropyl)amino]methyl}imidazo[1,2-a]pyridin-2-yl)methyl]-5,6,7,8-tetrahydro-8-quinolinamine] | 100 to 500
27 | CN(CCC#N)Cc1c(CN(C)[C@H]2CCCc3cccnc32)nc2ccccn12 [Example 27, 3-(Methyl{[2-({methyl[(8S)-5,6,7,8-tetrahydro-8-quinolinyl]amino}methyl)imidazo[1,2-a]pyridin-3-yl]methyl}amino)propanenitrile] | < 100
28 | CN(C)c1cc(-c2c(CN(C)[C@H]3CCCc4cccnc43)nc3ccccn23)ccn1 [Example 28, (8S)-N-({3-[2-(Dimethylamino)-4-pyridinyl]imidazo[1,2-a]pyridin-2-yl}methyl)-N-methyl-5,6,7,8-tetrahydro-8-quinolinamine] | 100 to 500
29 | CN(Cc1nc2ccccn2c1-c1ccnc(N2CCOCC2)c1)[C@H]1CCCc2cccnc21 [Example 29, (8S)-N-Methyl-N-({3-[2-(4-morpholinyl)-4-pyridinyl]imidazo[1,2-a]pyridin-2-yl}methyl)-5,6,7,8-tetrahydro-8-quinolinamine] | 100 to 500
